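Where inhibition never reached the appropriate level, the endpoint shown equals the highest concentration tested. Otherwise, values were interpolated linearly from a five-concentration, 48-hour dose response in 96-well plates. TGI is the concentration that stops growth completely.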
Tests used:
Experiment in all cases: DTP human tumour cell line panel, 48 h
M14 melanoma = test system: M14 melanoma
DU-145 prostate = test system: DU-145 prostate
SK-OV-3 ovarian = test system: SK-OV-3 ovarian
SF-539 CNS = test system: SF-539 CNS
HOP-62 NSCLC = test system: HOP-62 NSCLC
COLO 205 colon = test system: COLO 205 colon
MDA-N = test system: MDA-N
SK-MEL-2 melanoma = test system: SK-MEL-2 melanoma
BT-549 breast = test system: BT-549 breast
UACC-257 melanoma = test system: UACC-257 melanoma
HS 578T breast = test system: HS 578T breast

SMILES | TGI (M14 melanoma) [µM] | TGI (DU-145 prostate) [µM] | TGI (SK-OV-3 ovarian) [µM] | TGI (SF-539 CNS) [µM] | TGI (HOP-62 NSCLC) [µM] | TGI (COLO 205 colon) [µM] | TGI (MDA-N) [µM] | TGI (SK-MEL-2 melanoma) [µM] | TGI (BT-549 breast) [µM] | TGI (UACC-257 melanoma) [µM] | TGI (HS 578T breast) [µM]
CCOC(=O)c1nc2cc(C(F)(F)F)ccc2nc1Nc1ccc(F)cc1 | > 100 | > 100 | > 100 | 55.9 | > 100 | > 100 | > 100 | > 100 | > 100 | > 100 | 
C[C@H](CN1CC(=O)NC(=O)C1)N1CC(=O)NC(=O)C1 |  |  | > 100 | > 100 | > 100 | > 72.8 |  |  |  | > 100 | 
C=CCCC(On1c(-c2ccc(Cl)cc2)csc1=S)c1ccccc1 (configuration not stated) | > 100 | > 100 |  | > 100 | > 100 | > 100 | 13.4 | > 100 | > 100 | > 100 | > 100
Cc1cc(C)c2c(=N)c3ccccc3n(CCCCCCn3c4ccccc4c(=N)c4c(C)cc(C)nc43)c2n1 | 3.07 | 3.13 | 2.98 | 3.01 | 1.44 |  |  | 2.97 | 2.91 | 3.06 | 
CC(C)N1CCC2(CC1)NNc1ncccc1-n1cccc12 | > 100 |  |  | > 100 | > 100 | > 100 |  | > 100 |  | > 100 | 
COc1cc(/C=C2\N=C(C)N(n3c(-c4ccccc4)nc4ccccc4c3=O)C2=O)cc(OC)c1OC | > 100 | > 100 | > 100 | > 100 | > 100 | > 100 | > 100 |  | > 100 | > 100 | > 100
CN1CCN(/C(N)=C(\C#N)C(=O)Nc2ccccc2)CC1 | > 100 | > 100 | > 100 | > 100 | > 100 | > 100 | > 100 | > 100 | > 100 | > 100 | 
N#CCSc1c(-c2ccccc2)c(=O)n(-c2ccccc2)c(=S)n1-c1ccccc1 | > 100 |  | > 100 |  | > 100 | > 100 | > 100 | > 100 |  | > 100 | > 100
COc1c(-c2cccs2)oc2c(CC(=O)O)cccc2c1=O | > 100 | > 100 | > 100 | > 100 | > 100 | > 100 | > 100 | > 100 | > 100 | > 100 | 
CC(=O)Nc1ccc(-c2nnc(SCC(=O)Nc3cccc([N+](=O)[O-])c3)o2)cc1 | 29.7 |  | 24.5 | 31.4 | 45.8 | 33.8 |  | 37.2 |  | 51.4 | 
COc1cc(/C=c2/c3ccccc3n3c2cc(-c2ccccc2)[n+]3C)cc(OC)c1OC | > 35.8 | 18.4 | 23.2 | 8.64 | 19.5 | 3.22 | 34.6 | 8.06 | 11.8 | 7.68 | 
Cc1oncc1NC1=CC(=O)C(=O)c2ccccc21 | 17 | 31.7 | 37.8 | 15.1 | 36.8 | 37.1 |  |  | 25 | 9.34 | 71.5
CC(C)=CCCC1(Sc2ccccc2)C(=O)OCC1C=C(C)C (configuration not stated) | 52.1 |  | > 100 | 47.9 | > 100 | 50 | 66.1 | 55.8 | > 100 | 83 | 
CCNc1cc2c3c(c1)CCCN3CCC2 | 63.7 | > 100 | 37.3 | 40.5 | 28.4 | 24.5 | 10.9 | 30 |  | 49.5 | 78.5
Nc1nn(CC(O)CO)c(=O)s1 (configuration not stated) | > 100 |  | > 100 | > 100 | > 100 | > 100 |  | > 100 |  | > 100 | 
Clc1ccc2nc(CC3CCCC3)[nH]c2c1 | 38.2 | 54.6 | 49.1 | 51.7 | 32.7 | 27.9 | 38.5 | 41.2 |  | > 100 | 
COc1ccc(/C=N\NC(=O)Nc2cccc3ccccc23)cc1 | > 100 | > 100 |  | 33.3 | 26.5 | > 100 | > 100 | 43.7 | > 100 | > 100 | 61.2
NC(=O)CCC(NC(=O)c1cccc2c(=O)c3ccccc3[nH]c12)C(=O)O (configuration not stated) | > 100 | > 100 | > 100 |  | > 100 | > 100 | > 100 | > 100 |  |  | > 100
O=C1C2=C(CCCCC2)C2CCCCC12O (configuration not stated) | > 100 |  | > 100 | > 100 | > 100 | > 100 |  | > 100 |  | > 100 | 
COc1ccc2oc(=Nc3ccc(F)cc3)c(C(N)=O)cc2c1 | > 100 | > 100 | 52.1 |  | > 100 | > 100 | > 100 | 74.7 | > 100 | > 100 | > 100
COc1cc2cc3c4c(cc(OC)c(OC)c4c2cc1OC)CCN3C(=O)N(C)C | > 10 |  | > 100 | > 100 | > 100 | > 100 |  | > 100 |  | > 100 | 
O=c1oc2c/c(=C\c3ccccc3)c(=O)c3cccc1c3-2 | 48.6 | > 100 | > 100 | 67.1 | 44.1 | > 100 | 46.1 |  | 51.6 | > 100 | 73.2
COc1ccc(/C(Cl)=C(\C=O)c2ccccc2)cc1OC | > 100 |  | > 100 | > 100 | 81.8 | 22.4 |  | > 100 |  | > 100 | 
Cn1c(N=[N+]=[N-])cc(=O)n(C)c1=O | > 100 |  | > 100 | > 100 | > 100 | > 100 | > 100 | > 100 | > 100 | > 100 | > 100

Reference: PubChem BioAssay (NCI)
